Experimental data as given in patent US20240324531A1, “METHOD TO INCREASE POLLEN FERTILITY” (Keygene N.V., priority 2021, published 2024).
“Also recorded” adds a separate entry of the source.

Test system: anthers of B. rapa x B. oleracea cross (F1)
Assay: Opening of anthers after treating immature flower buds of the AC hybrid
Format: in vivo, Brassica rapa x Brassica oleracea interspecific hybrid
Settings: 20 nM; F1 of this cross normally does not form open anthers
Description: Alternatively or in addition, preferably in the provided first seed plant, at least about 2%, 4%, 6%, 8%, 10%, 15%, 20%, 25%, 30%, 35%, 40%, 45%, 50%, 55%, 60%, 65%, 70%, 75%, 80%, 85%, 90%, 95% or 100% of the anthers remain closed upon pollen maturation. Preferably, less than about 95%, 90%, 85%, 80%, 75%, 70%, 65%, 60%, 55%, 50%, 45%, 40%, 35%, 30%, 25%, 20%, 15%, 10%, 8%, 6%, 4%, 2% or less than about 1% of the anthers open upon pollen maturation.

In the case of `NC1=NC(=O)C(=Cc2ccc(O)cc2)S1` [Mirin, 2-Amino-5-[(4-hydroxyphenyl)methylene]-4(5H)-thiazolone], the opening of anthers is reported as “open anther; also recorded: opening of anthers”.
